Structures can show the parent of a compound that is named as a salt.
Legend:
[1] = system: BT474 (human breast carcinoma); test: In vitro tumor cell proliferation assay (Cell Titer-Glo luminescent cell viability), BT474; format: cell-based; details: BT-474, 72 h, BT474 cells, 72 hours of drug exposure, ATP luminescence readout, read-out: IC50, anti-proliferative activity (inhibition of cell proliferation)
In short: (§1)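 Seeding density 2.5×10^3 cells/well; 72 h drug exposure at 37° C; endpoint CellTiter-Glo luminescence, reported as IC50.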

[2] = system: A431 cells (human epidermoid carcinoma); test: In vitro tumor cell proliferation assay (Cell Titer-Glo luminescent cell viability), A431; format: cell-based; details: A-431, 72 h, 72 hours of drug exposure, ATP luminescence readout, read-out: IC50, anti-proliferative activity (inhibition of cell proliferation)
In short: as §1

Compound | IC50 [1] [µM] | IC50 [2] [µM]
CN1CCN(CCn2ncc3c2CCc2c-3sc3ncnc(Nc4ccc(F)c(Cl)c4)c23)CC1 [Example 90, N-(3-chloro-4-fluorophenyl)-3-[2-(4-methylpiperazin-1-yl)ethyl]-4,5-dihydro-3H-pyrimido[5′,4′:4,5]thieno[2,3-e]indazol-6-amine trifluoroacetate] | ≤ 5 | ≤ 5
COC[C@@H]1CCCN1CCn1cc2c(n1)CCc1c-2sc2ncnc(Nc3ccc(F)c(Cl)c3)c12 [Example 31, N-(3-chloro-4-fluorophenyl)-2-{2-[(2S)-2-(methoxymethyl)pyrrolidin-1-yl]ethyl}-4,5-dihydro-2H-pyrimido[5′,4′:4,5]thieno[2,3-e]indazol-6-amine] | ≤ 5 | ≤ 5
Cc1nccn1CCn1cc2c(n1)CCc1c-2sc2ncnc(Nc3ccc(F)c(Cl)c3)c12 [Example 37, N-(3-chloro-4-fluorophenyl)-2-[2-(2-methyl-1H-imidazol-1-yl)ethyl]-4,5-dihydro-2H-pyrimido[5′,4′:4,5]thieno[2,3-e]indazol-6-amine] | ≤ 5 | ≤ 5
OCCn1cc2c(n1)CCc1c-2sc2ncnc(Nc3ccc4c(cnn4Cc4cccc(F)c4)c3)c12 [Example 275, 2-(6-{[1-(3-fluorobenzyl)-1H-indazol-5-yl]amino}-4,5-dihydro-2H-pyrimido[5′,4′:4,5]thieno[2,3-e]indazol-2-yl)ethanol] | ≤ 1 | ≤ 5
CS(=O)(=O)OCCn1cc2c(n1)CCc1c-2sc2ncnc(Nc3ccc(OCc4cccc(F)c4)c(Cl)c3)c12 [Example 57, 2-[6-({3-chloro-4-[(3-fluorobenzyl)oxy]phenyl}amino)-4,5-dihydro-2H-pyrimido[5′,4′:4,5]thieno[2,3-e]indazol-2-yl]ethyl methanesulfonate] | ≤ 1 | ≤ 5
Clc1cc(Nc2ncnc3sc4c(c23)CCc2n[nH]cc2-4)ccc1OCc1ccccc1 [Example 127, N-[4-(benzyloxy)-3-chlorophenyl]-4,5-dihydro-2H-pyrimido[5′,4′:4,5]thieno[2,3-e]indazol-6-amine] | ≤ 1 | ≤ 5
CS(=O)(=O)CCNCCn1ncc2c1CCc1c-2sc2ncnc(Nc3ccc(F)c(Cl)c3)c12 [Example 92, N-(3-chloro-4-fluorophenyl)-3-(2-{[2-(methylsulfonyl)ethyl]amino}ethyl)-4,5-dihydro-3H-pyrimido[5′,4′:4,5]thieno[2,3-e]indazol-6-amine] | ≤ 5 | ≤ 5
CN(C)C[C@@H](O)Cn1cc2c(n1)CCc1c-2sc2ncnc(Nc3ccc(OCc4cccc(F)c4)c(Cl)c3)c12 [Example 156, (2R)-1-[6-({3-chloro-4-[(3-fluorobenzyl)oxy]phenyl}amino)-4,5-dihydro-2H-pyrimido[5′,4′:4,5]thieno[2,3-e]indazol-2-yl]-3-(dimethylamino)propan-2-ol trifluoroacetate (salt)] | ≤ 1 | ≤ 50
O[C@H](Cn1ccnc1)Cn1cc2c(n1)CCc1c-2sc2ncnc(Nc3ccc(OCc4cccc(F)c4)c(Cl)c3)c12 [Example 141, (2R)-1-[6-({3-chloro-4-[(3-fluorobenzyl)oxy]phenyl}amino)-4,5-dihydro-2H-pyrimido[5′,4′:4,5]thieno[2,3-e]indazol-2-yl]-3-(1H-imidazol-1-yl)propan-2-ol trifluoroacetate (salt)] | ≤ 1 | ≤ 50
C=CCn1cc2c(n1)CCc1c-2sc2ncnc(Nc3ccc(OCc4cccc(F)c4)c(Cl)c3)c12 [Example 128, 2-allyl-N-{3-chloro-4-[(3-fluorobenzyl)oxy]phenyl}-4,5-dihydro-2H-pyrimido[5′,4′:4,5]thieno[2,3-e]indazol-6-amine trifluoroacetate (Salt)] | ≤ 1 | ≤ 50
OCCNCCn1ncc2c1CCc1c-2sc2ncnc(Nc3ccc4c(cnn4Cc4cccc(F)c4)c3)c12 [Example 300, 2-{[2-(6-{[1-(3-fluorobenzyl)-1H-indazol-5-yl]amino}-4,5-dihydro-3H-pyrimido[5′,4′:4,5]thieno[2,3-e]indazol-3-yl)ethyl]amino}ethanol] | ≤ 1 | ≤ 5
CC(C)(C)[Si](C)(C)OCCn1cc2c(n1)CCc1c-2sc2ncnc(Nc3ccc(OCc4ccccn4)c(Cl)c3)c12 [Example 98, 2-(2-{[tert-butyl(dimethyl)silyl]oxy}ethyl)-N-[3-chloro-4-(pyridin-2-ylmethoxy)phenyl]-4,5-dihydro-2H-pyrimido[5′,4′:4,5]thieno[2,3-e]indazol-6-amine] | ≤ 1 | ≤ 50
COCCN(C)CCn1cc2c(n1)CCc1c-2sc2ncnc(Nc3ccc(F)c(Cl)c3)c12 [Example 10, N-(3-chloro-4-fluorophenyl)-2-{2-[(2-methoxyethyl)(methyl)amino]ethyl}-4,5-dihydro-2H-pyrimido[5′,4′:4,5]thieno[2,3-e]indazol-6-amine] | ≤ 5 | ≤ 5

Now from value to compound:

IC50 [1] [µM] | IC50 [2] [µM] | Compound
≤ 1 | ≤ 5 | COCCNCCn1ncc2c1CCc1c-2sc2ncnc(Nc3ccc(OCc4cccc(F)c4)c(Cl)c3)c12 [Example 84, N-{3-chloro-4-[(3-fluorobenzyl)oxy]phenyl}-3-{2-[(2-methoxyethyl)amino]ethyl}-4,5-dihydro-3H-pyrimido[5′,4′:4,5]thieno[2,3-e]indazol-6-amine]
≤ 1 | ≤ 5 | CN1CCN(CCn2cc3c(n2)CCc2c-3sc3ncnc(Nc4ccc(OCc5ccccc5F)c(Cl)c4)c23)CC1 [Example 334, N-{3-chloro-4-[(2-fluorobenzyl)oxy]phenyl}-2-[2-(4-methylpiperazin-1-yl)ethyl]-4,5-dihydro-2H-pyrimido[5′,4′:4,5]thieno[2,3-e]indazol-6-amine]
≤ 1 | ≤ 5 | CN1CCN(CC(=O)N2CCC(Cn3cc4c(n3)CCc3c-4sc4ncnc(Nc5ccc(OCc6cccc(F)c6)c(Cl)c5)c34)CC2)CC1 [Example 237]
≤ 1 | ≤ 50 | COCCNCCn1cc2c(n1)CCc1c-2sc2ncnc(Nc3ccc(OCc4ccccn4)c(Cl)c3)c12 [Example 103, N-[3-chloro-4-(pyridin-2-ylmethoxy)phenyl]-2-{2-[(2-methoxyethyl)amino]ethyl}-4,5-dihydro-2H-pyrimido[5′,4′:4,5]thieno[2,3-e]indazol-6-amine]
≤ 1 | ≤ 5 | OCC(O)Cn1ncc2c1CCc1c-2sc2ncnc(Nc3ccc(OCc4cccc(F)c4)c(Cl)c3)c12 (stereo not drawn) [Example 132, 3-[6-({3-chloro-4-[(3-fluorobenzyl)oxy]phenyl}amino)-4,5-dihydro-3Hpyrimido[5′,4′:4,5]thieno[2,3-e]indazol-3-yl]propane-1,2-diol]
≤ 1 | ≤ 5 | Fc1cccc(COc2ccc(Nc3ncnc4sc5c(c34)CCc3c-5cnn3CCCN3CCCCC3)cc2Cl)c1 [Example 273]
≤ 1 | ≤ 5 | Fc1cccc(COc2ccc(Nc3ncnc4sc5c(c34)CCc3nn(CCN4CCOCC4)cc3-5)cc2Cl)c1 [Example 63, N-{3-chloro-4-[(3-fluorobenzyl)oxy]phenyl}-2-(2-morpholin-4-ylethyl)-4,5-dihydro-2H-pyrimido[5′,4′:4,5]thieno[2,3-e]indazol-6-amine]
≤ 1 | ≤ 5 | Cc1cc(Nc2ncnc3sc4c(c23)CCc2nn(CCN3CCN(C)CC3)cc2-4)ccc1OCc1cccc(F)c1 [Example 335, N-{4-[(3-fluorobenzyl)oxy]-3-methylphenyl}-2-[2-(4-methylpiperazin-1-yl)ethyl]-4,5-dihydro-2H-pyrimido[5′,4′:4,5]thieno[2,3-e]indazol-6-amine]
≤ 1 | ≤ 5 | CS(=O)(=O)OCCn1ncc2c1CCc1c-2sc2ncnc(Nc3ccc(OCc4cccc(F)c4)c(Cl)c3)c12 [Example 258, 2-[6-({3-chloro-4-[(3-fluorobenzyl)oxy]phenyl}amino)-4,5-dihydro-3H-pyrimido[5′,4′:4,5]thieno[2,3-e]indazol-3-yl]ethyl methanesulfonate]
≤ 1 | ≤ 5 | CN(C)C1CCN(CCn2cc3c(n2)CCc2c-3sc3ncnc(Nc4ccc5c(cnn5Cc5cccc(F)c5)c4)c23)C1 (stereo not drawn) [Example 282, 2-{2-[3-(dimethylamino)pyrrolidin-1-yl]ethyl}-N-[1-(3-fluorobenzyl)-1H-indazol-5-yl]-4,5-dihydro-2H-pyrimido[5′,4′:4,5]thieno[2,3-e]indazol-6-amine]
≤ 1 | ≤ 5 | CN1CCN(CCn2ncc3c2CCc2c-3sc3ncnc(Nc4ccc(OCc5ccc(F)cc5)c(Cl)c4)c23)CC1 [Example 322, N-{3-chloro-4-[(4-fluorobenzyl)oxy]phenyl}-3-[2-(4-methylpiperazin-1-yl)ethyl]-4,5-dihydro-3H-pyrimido[5′,4′:4,5]thieno[2,3-e]indazol-6-amine trifluoroacelate]
≤ 1 | ≤ 5 | CN1CCN(C(=O)Cn2cc3c(n2)CCc2c-3sc3ncnc(Nc4ccc5c(cnn5Cc5cccc(F)c5)c4)c23)CC1 [Example 182, N-[1-(3-fluorobenzyl)-1H-indazol-5-yl]-2-[2-(4-methylpiperazin-1-yl)-2-oxoethyl]-4,5-dihydro-2H-pyrimido[5′,4′:4,5]thieno[2,3-e]indazol-6-amine]
≤ 1 | ≤ 5 | CN1CCN(CCn2cc3c(n2)CCc2c-3sc3ncnc(Nc4ccc5c(cnn5Cc5cccc(F)c5)c4)c23)CC1 [Example 277]
≤ 1 | ≤ 5 | CN(C)C1CCN(C(=O)Cn2ncc3c2CCc2c-3sc3ncnc(Nc4ccc(OCc5cccc(F)c5)c(Cl)c4)c23)C1 (stereo in doubt) [Example 211, N-{3-chloro-4-[(3-fluorobenzyl)oxy]phenyl}-3-{2-[(3R)-3-(dimethylamino)pyrrolidin-1-yl]-2-oxoethyl}-4,5-dihydro-3H-pyrimido[5′,4′:4,5]thieno[2,3-e]indazol-6-amine]
